Assay results from EPA's ToxValDB 9.5 (doi:10.2903/j.efsa.2018.5140).
Values joined by “and” are separate entries in the source; they are usually repeats but may differ in a detail not shown here. Equal values may be shown once.

Key:
Colinus virginianus = conditions: for LD50: acute, oral, mortality
Pimephales promelas = conditions: chronic/long-term; duration: 28 days
Canidae = conditions: oral, Dog Other, hematological
Neomysis kadiakensis = conditions: chronic/long-term; duration: 28 days; reproduction
Apis mellifera = conditions: acute, mortality
Folsomia candida = conditions: chronic/long-term; duration: 28 days; reproduction
Oncorhynchus mykiss = conditions: acute; duration: 96 hours; mortality
Aphidius rhopalosiphi = assay: LR50; higher = less toxic; conditions: acute; mortality

| SMILES | LD50 (Rattus norvegicus; acute, oral, mortality) | NOAEL (Rattus norvegicus; chronic) | NOAEL (Rattus norvegicus; chronic, duration: 2 years, hematological) | NOAEL (Rattus norvegicus; reproduction developmental, body weight) | NOAEL (Rattus norvegicus; subchronic, duration: 90 days, oral, hematological) | NOAEL (Rattus norvegicus; subchronic, oral, hematological) | LD50 (Colinus virginianus) | NOAEL (Colinus virginianus; reproduction developmental) | NOEC (Pimephales promelas) | LOAEL (Canidae; chronic, duration: 1 years) | LOAEL (Canidae; subchronic, duration: 90 days) | NOEC (Neomysis kadiakensis) | LD50 (Apis mellifera; dermal) | LD50 (Apis mellifera; oral, unspecified) | NOEC (Folsomia candida) | LC50 (Oncorhynchus mykiss) | LR50 (Aphidius rhopalosiphi) | LC50 (Rattus norvegicus; acute, M, mortality) | LD50 (Rattus norvegicus; acute, oral, F, mortality) |
| --- | --- | --- | --- | --- | --- | --- | --- | --- | --- | --- | --- | --- | --- | --- | --- | --- | --- | --- | --- |
| COC(=O)N(C(=O)N1CO[C@@]2(C(=O)OC)Cc3cc(Cl)ccc3C2=N1)c1ccc(OC(F)(F)F)cc1 [Indoxacarb] | 146 mg/kg-day | 0.6 mg/kg-day | 1.04 mg/kg-day | 0.5 mg/kg-day | 0.68 mg/kg-day and 0.99 mg/kg-day | 0.76 mg/kg-day | 73.5 mg/kg-day | 56.8 mg/kg-day | 0.0675 mg/L | 1.1 mg/kg-day | 1 mg/kg-day | 0.0138 mg/L | 0.0682 µg/piece | 0.232 µg/piece | 1 mg/kg | > 0.17 µg/mL | 5.1 g/ha | – | – |
| COC(=O)[C@@]12Cc3cc(Cl)ccc3C1=NN(C(=O)Nc1ccc(OC(F)(F)F)cc1)CO2 | – | – | – | – | – | – | 1750 mg/kg | – | – | – | – | – | – | – | – | – | – | 52 mg/kg | 39 mg/kg |
